Laboratory results as given in patent US8163732B2, “Tricyclic heteroaryl compounds useful as inhibitors of Janus kinase” (Vertex Pharmaceuticals Incorporated, priority 2005, dated 2012).
pKi: −log10 of the molar value.

Key:
JAK-2 = JAK-2 (Homo sapiens, UniProt O60674); assay: JAK-2 inhibition assay; type: biochemical
JAK-3 = molecular target: T1, JAK-3 (Homo sapiens, UniProt P52333); assay: JAK-3 inhibition assay; type: biochemical
T1 sequence (P52333 1-1124): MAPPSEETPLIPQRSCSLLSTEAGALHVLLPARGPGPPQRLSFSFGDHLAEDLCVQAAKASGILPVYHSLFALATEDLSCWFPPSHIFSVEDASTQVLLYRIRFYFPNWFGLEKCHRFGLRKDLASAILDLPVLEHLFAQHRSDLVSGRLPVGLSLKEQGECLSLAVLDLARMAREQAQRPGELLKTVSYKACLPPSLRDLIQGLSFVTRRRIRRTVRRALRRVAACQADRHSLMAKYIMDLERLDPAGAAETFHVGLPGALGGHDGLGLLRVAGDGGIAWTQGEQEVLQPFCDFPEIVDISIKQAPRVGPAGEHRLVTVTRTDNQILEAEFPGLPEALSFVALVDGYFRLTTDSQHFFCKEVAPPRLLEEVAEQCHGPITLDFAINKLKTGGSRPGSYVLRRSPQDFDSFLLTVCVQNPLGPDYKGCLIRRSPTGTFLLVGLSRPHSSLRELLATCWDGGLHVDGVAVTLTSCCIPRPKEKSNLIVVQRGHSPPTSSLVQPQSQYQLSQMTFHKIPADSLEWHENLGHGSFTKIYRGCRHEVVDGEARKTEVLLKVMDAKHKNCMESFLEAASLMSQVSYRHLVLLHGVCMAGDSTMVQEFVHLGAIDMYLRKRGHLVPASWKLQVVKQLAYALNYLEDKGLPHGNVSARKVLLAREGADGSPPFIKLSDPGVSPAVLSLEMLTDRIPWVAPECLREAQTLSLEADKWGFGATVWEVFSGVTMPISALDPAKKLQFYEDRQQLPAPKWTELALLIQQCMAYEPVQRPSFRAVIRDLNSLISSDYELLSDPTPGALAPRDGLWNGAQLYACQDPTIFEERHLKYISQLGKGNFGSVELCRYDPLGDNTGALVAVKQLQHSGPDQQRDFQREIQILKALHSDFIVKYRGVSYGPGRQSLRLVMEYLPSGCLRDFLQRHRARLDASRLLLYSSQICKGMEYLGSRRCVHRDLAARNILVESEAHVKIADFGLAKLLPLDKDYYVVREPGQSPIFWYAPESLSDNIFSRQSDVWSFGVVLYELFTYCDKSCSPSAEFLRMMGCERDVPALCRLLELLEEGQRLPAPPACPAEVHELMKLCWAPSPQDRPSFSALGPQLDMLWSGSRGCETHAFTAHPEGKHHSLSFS

JAK-2, sequence (O60674 whole entry): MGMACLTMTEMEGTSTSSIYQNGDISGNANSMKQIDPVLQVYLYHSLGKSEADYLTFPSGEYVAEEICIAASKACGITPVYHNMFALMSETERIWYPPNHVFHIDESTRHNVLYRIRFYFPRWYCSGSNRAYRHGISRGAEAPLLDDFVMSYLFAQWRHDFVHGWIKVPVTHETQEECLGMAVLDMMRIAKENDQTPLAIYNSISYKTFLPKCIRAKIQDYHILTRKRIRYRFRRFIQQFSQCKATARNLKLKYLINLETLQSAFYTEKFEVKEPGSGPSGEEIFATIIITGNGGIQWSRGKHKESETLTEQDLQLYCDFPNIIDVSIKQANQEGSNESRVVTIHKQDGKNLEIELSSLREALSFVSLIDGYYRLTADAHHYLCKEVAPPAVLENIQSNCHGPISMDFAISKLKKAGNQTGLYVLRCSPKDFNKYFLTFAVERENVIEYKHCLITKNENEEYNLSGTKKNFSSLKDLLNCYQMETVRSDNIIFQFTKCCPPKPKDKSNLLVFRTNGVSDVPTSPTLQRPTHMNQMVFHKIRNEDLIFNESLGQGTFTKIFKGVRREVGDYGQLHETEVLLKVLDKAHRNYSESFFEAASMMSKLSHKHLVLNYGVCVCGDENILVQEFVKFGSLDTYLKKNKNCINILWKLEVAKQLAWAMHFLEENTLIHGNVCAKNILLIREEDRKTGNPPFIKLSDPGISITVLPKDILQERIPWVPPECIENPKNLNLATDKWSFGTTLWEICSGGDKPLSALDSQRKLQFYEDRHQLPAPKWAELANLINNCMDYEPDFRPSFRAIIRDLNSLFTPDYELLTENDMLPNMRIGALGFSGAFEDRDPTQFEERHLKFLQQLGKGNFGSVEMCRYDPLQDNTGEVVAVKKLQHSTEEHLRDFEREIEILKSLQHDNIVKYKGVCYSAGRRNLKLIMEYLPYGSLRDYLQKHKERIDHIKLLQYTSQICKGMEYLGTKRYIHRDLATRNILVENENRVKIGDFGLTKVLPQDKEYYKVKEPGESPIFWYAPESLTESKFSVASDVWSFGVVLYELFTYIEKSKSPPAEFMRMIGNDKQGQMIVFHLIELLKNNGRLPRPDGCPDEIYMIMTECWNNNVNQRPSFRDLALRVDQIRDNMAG

SMILES	pKi (JAK-2)	pKi (JAK-3)
c1ccc(Oc2ccc(C3Nc4ccccc4-c4ccnc5[nH]cc3c45)cc2)cc1 (stereo not drawn) [Compound 147]	< 5.60	< 5.60
O=C1NC(c2ccc(Br)cc2)c2c[nH]c3nccc(c23)-c2ccccc21 (stereo not drawn) [Compound 152]	< 5.60	< 5.60
Brc1ccc(C2Nc3ccccc3-c3ccnc4[nH]cc2c34)cc1 (stereo not drawn) [Compound 153]	< 5.60	< 5.60
N#CCC1Nc2ccccc2-c2ccnc3[nH]cc1c23 (stereo not drawn) [Compound 155]	> 6.60	≥ 6.60
CCN(CC)CCOc1ccc(C2Nc3ccccc3-c3ccnc4[nH]cc2c34)cc1 (stereo not drawn) [Compound 157]	> 6.60	≥ 6.60
CN1C(=O)C(c2ccc(O)cc2)c2c[nH]c3ncnc(c23)-c2ccccc21 (stereo not drawn) [Compound 159]	> 6.60	≥ 6.60
CN(C(=O)Oc1ccc(C2Nc3ccccc3-c3ccnc4[nH]cc2c34)cc1F)c1ccccc1 (stereo not drawn) [Compound 162]	5.60 to 6.60	5.60 to 6.60

Now from value to compound:

pKi (JAK-2)	pKi (JAK-3)	SMILES
5.60 to 6.60	5.60 to 6.60	CCOc1cc(C2Nc3ccccc3-c3ccnc4[nH]cc2c34)ccc1O (stereo not drawn) [Compound 148]
> 6.60	≥ 6.60	O=C1Nc2ccccc2-c2ccnc3[nH]cc(c23)C1c1ccc(O)c(F)c1 (stereo not drawn) [Compound 150]
> 6.60	≥ 6.60	O=C1Nc2ccccc2-c2ncnc3[nH]cc(c23)C1c1ccc(O)cc1 (stereo not drawn) [Compound 158]
> 6.60	≥ 6.60	O=C1Nc2ccccc2-c2ncnc3[nH]cc(c23)C1c1ccc(O)c(F)c1 (stereo not drawn) [Compound 160]
> 6.60	5.60 to 6.60	Cc1ccc(C2C(=O)Nc3ccccc3-c3ncnc4[nH]cc2c34)cc1 (stereo not drawn) [Compound 161]
